For one test, the target named is T1, sPHEX (Homo sapiens, UniProt P78562).
T1 construct: The soluble form of the metallopeptidase PHEX (sPHEX) was purified to homogeneity; made in house
T1 sequence (P78562 53-749 limits assumed): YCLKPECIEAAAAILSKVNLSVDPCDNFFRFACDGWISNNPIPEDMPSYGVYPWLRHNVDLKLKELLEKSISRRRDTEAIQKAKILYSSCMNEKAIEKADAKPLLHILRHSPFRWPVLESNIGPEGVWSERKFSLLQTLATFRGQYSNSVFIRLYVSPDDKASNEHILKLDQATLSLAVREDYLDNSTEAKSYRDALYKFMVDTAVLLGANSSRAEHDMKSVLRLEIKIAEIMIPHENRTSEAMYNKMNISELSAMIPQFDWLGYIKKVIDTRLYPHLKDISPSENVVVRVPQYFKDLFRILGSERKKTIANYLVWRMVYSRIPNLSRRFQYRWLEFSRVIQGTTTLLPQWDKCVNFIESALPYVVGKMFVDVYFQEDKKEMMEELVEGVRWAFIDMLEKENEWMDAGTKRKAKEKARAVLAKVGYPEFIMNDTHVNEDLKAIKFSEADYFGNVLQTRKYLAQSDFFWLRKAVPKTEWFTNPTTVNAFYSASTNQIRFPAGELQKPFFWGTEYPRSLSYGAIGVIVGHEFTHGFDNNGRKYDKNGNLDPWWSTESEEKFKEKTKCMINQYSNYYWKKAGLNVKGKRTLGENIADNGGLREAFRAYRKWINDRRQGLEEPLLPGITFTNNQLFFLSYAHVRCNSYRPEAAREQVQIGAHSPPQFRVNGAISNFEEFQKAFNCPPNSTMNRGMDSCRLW
Briefly: Protection of PHEX substrate PTHrP107-139 from sPHEX degradation (RP-HPLC). In kind it is biochemical. To be noted: 1×10^−5M inhibitor, 1.0 μg sPHEX, 30 min, 37° C.; without inhibitor approximately 75% degraded. On the procedure: In general, in order to show inhibition of sPHEX, the enzyme is incubated in the absence or the presence of the inhibiting compound, and a substrate is added in conditions that are suitable for sPHEX enzymatic activity. Hydrolysis of the substrate in the absence or the presence of the inhibiting compound is monitored.
For example, 1.0 μg of purified sPHEX was first incubated at 37° C. for 15 min with or without 1×10^−5M of compound MH-2-64C (FIG. 1) in 90 μl 50 mM MES (2-(N-morpholino)ethanesulfonic acid) pH 6.5, 150 mM NaCl. Then, 2.5 μg of peptide PTHrP107-139 in 10 μl of the same buffer were added and the incubation continued for 30 min. The reaction mixture also contained 1.3 μg of the amino acid Phe which was used as an internal standard. After the incubation period, the reaction was stopped by the addition of EDTA to a final concentration of 5 mM. Detection of cleavage products was performed by reverse phase high performance liquid chromatography (RP-HPLC) on a C18 μBondapak™ analytical column (Waters, Mississauga, ON, Canada) with a UV detector set at 220 nm. […] Results were quantified by comparing the area under the undigested peak of PTHrP107-139, after normalization for the amount of Phe present in the sample. […]

For another test, the system named is rat mandibular defect. Put plainly: Bone lesion repair in rat mandibular defect model (hydroxyapatite particles soaked in inhibitor). In kind it is in vivo. To be noted: for bone formation (scanning electron microscopy, % of total defect area): 14 days healing. How it is done: Osteogenic properties of PHEX inhibitors can be shown in a model of rat mandibular defect. For example, a 2 mm size bone defect was created in the rat mandible as described previously (Vu et al., 1999). Rats were anesthetized and the vestibular surface of the right mandibular ramus was exposed as follow: an incision was made through the skin along an imaginary line forming a 90° angle with the lower lip to access the muscle layer. A scalpel blade was used to make an incision parallel to the fibers of the deep portion of masseter muscle, about 2 mm posterior to the facial artery (largest branch of the external carotid), in the portion where it gives rise to the labial mandibular artery. The periosteum was elevated and the underlying bony surface exposed. A 2 mm×2 mm bony window was drilled between the second and third molar using a slow-speed dental drill with a carbide round burr size 1.4 mm (Brasseler) and a drill size 2 mm (Straumann Canada Ltd). Saline irrigation was used during the drilling. Porous hydroxyapatite particles (Fin-Ceramica Faenza s.r.l.) with pore size ranged from 450 to 600 μm were accommodated in the bony hole and pushed into it. The particles had been incubated previously in solutions of varying concentrations of PHEX inhibitor or vehicle for 16 to 24 hours at 4° C. Once the bony window was filled the lesion was covered with a membrane of hydroxyapatite (Fin-Ceramica Faenza s.r.l.) which was fixed to the surrounding bone surface with topical tissue adhesive. The muscle fibers were carefully repositioned on the mandible and sutured with absorbable surgical sutures (Chromic Gut, Ethicon Inc.). The skin was sutured for total coverage with silk sutures (Sherwood Davis & Geck, Wayne). After 7 days of treatment the bone lesion was exposed and varying concentrations of PHEX inhibitor or vehicle was reapplied to hydroxyapatite particles. Treatment was continued for another 7 days.
After the 14 day healing period, bone formation at the defect was evaluated by scanning electron microscopy and microcomputed tomography. Animals were sacrificed by intravascular perfusion through the left ventricle with 4% paraformaldehyde and 0.1% glutaraldehyde solution. Treated hemimandibles were taken, immersed in the fixative overnight at 4° C. then washed and kept in 0.1 M cacodylate buffer pH 8.0 until analysis. Specimens for quantification by scanning electron microscopy were dehydrated in a graded alcohol series and embedded in LR White resin (Marivac) for further sectioning along their longitudinal axis. […] Amount of bone tissue present in the sections was quantified by manual tracing using the MOP-3 system (Carl Zeiss) and was expressed as a percentage of the total defect area. […]

Regarding `O=C(O)CC(CC(=O)NO)C(=O)NCCc1ccc(-c2ccccc2)cc1` (centres unmarked) [Example 126, 3-(2-Biphenyl-4-yl-ethylcarbamoyl)-4-hydroxycarbamoyl-butyric acid], the “degradation of PTHrP107-139 by sPHEX” value on sPHEX is recorded as “fully prevented”. Besides, the “bone formation (scanning electron microscopy, % of total defect area)” value in the test on rat mandibular defect (1×10^−5 M on hydroxyapatite particles, compared to saline) was “reduced significantly”; with rat mandibular defect (lower concentrations on hydroxyapatite particles), “significantly stimulated”. Also, in the test with rat mandibular defect (high inhibitor dose, one representative specimen), the “bone formation (microcomputed tomography 3D reconstruction)” value was “reduced bone formation”. For the same molecule, the “bone around particles (microcomputed tomography 3D reconstruction)” value in the test on rat mandibular defect (low dose of inhibitor vs particles soaked in saline, one representative specimen) is on record as “more bone”.
